Patent publication EP0243192B1, “Antiviral 8-Phenylxanthines” (THE WELLCOME FOUNDATION LIMITED, priority 1986, dated 1987)

Assays:
[1] = standard LD50 test, intraperitoneal administration to mice; settings: mouse, in vivo, ip, read-out: LD₅₀
Experimental: The toxicity of a representative number of compounds of the present invention was determined by using the standard LD₅₀ test.

HIV = assay: in-vitro anti-HIV assay system as described in Mitsuya et al.; format: cell-based; settings: for effective concentration: concentration of the drug at which effects were seen (3µM to 30µM)
Experimental: The anti-HIV activity of various compounds was tested using an in-vitro assay system as described in H Mitsuya et al; (Proc Natl. Acad.Sci. USA Vol 82 pp 7096-7100, October 1985).
From the information obtained the 50% effective dose (ED₅₀ value) was estimated and the results expressed as active (+) or very active (++).

Row | Structure (SMILES) | LD50 [1] [mg/kg] | effective concentration (HIV) [µM] | anti-HIV activity (HIV; statement in words)
1 | CC(C)Cn1c(=O)n(C)c(=O)c2nc(-c3ccc(/C=C/C(=O)O)cc3)[nH]c21 [(E)-4-(1,2,3,6-tetrahydro-3-isobutyl-1-methyl-2,6-dioxo-9H-purin-8-yl)cinnamic acid] | > 100 | – | –
2 | CC(C)Cn1c(=O)[nH]c(=O)c2nc(-c3ccc(/C=C/C(=O)O)cc3)[nH]c21 [(E)-4-(1,2,3,6-tetrahydro-3-isobutyl-2,6-dioxo-9H-purin-8-yl)cinnamic acid] | > 100 | – | –
3 | Cn1c(=O)[nH]c(=O)c2nc(-c3ccc(/C=C/C(=O)O)cc3)[nH]c21 [(E)-4-(1,2,3,6-tetrahydro-3-methyl-2,6-dioxo-9H-purin-8-yl)cinnamic acid] | > 500 | – | –
4 | O=C(O)/C=C/c1ccc(-c2nc3c(=O)n(Cc4ccccc4)c(=O)n(Cc4ccccc4)c3[nH]2)cc1 [(E)-4-(1,3-dibenzyl-1,2,3,6-tetrahydro-2,6-dioxo-9H-purin-8-yl)cinnamic acid] | – | 3 to 15 | particularly potent
5 | CCCCn1c(=O)c2nc(-c3ccc(/C=C/C(=O)O)cc3)[nH]c2n(CCCC)c1=O [(E)-4-(1,3-dibutyl-1,2,3,6-tetrahydro-2,6-dioxo-9H-purin-8-yl)cinnamic acid] | > 100 | 30 | –
6 | CCCn1c(=O)n(Cc2ccccc2)c(=O)c2nc(-c3ccc(/C=C/C(=O)O)cc3)[nH]c21 [(E)-4-(1-Benzyl-1,2,3,6-tetrahydro-2,6-dioxo-3-propyl-9H-purin-8-yl)cinnamic acid] | – | 30 | –
7 | CCCn1c(=O)c2nc(-c3ccc(/C=C/C(=O)O)cc3)[nH]c2n(Cc2ccccc2)c1=O [(E)-4-(3-Benzyl-1,2,3,6-tetrahydro-2,6-dioxo-1-propyl-9H-purin-8-yl)cinnamic acid] | – | 30 | –
8 | Cn1c(=O)c2nc(-c3ccc(/C=C/C(=O)O)cc3)[nH]c2n(Cc2ccccc2)c1=O [(E)-4-(3-benzyl-1,2,3,6-tetrahydro-1-methyl-2,6-dioxo-9H-purin-8-yl)cinnamic acid] | > 100 | – | –
9 | CCCCn1c(=O)n(C)c(=O)c2nc(-c3ccc(/C=C/C(=O)O)cc3)[nH]c21 [(E)-4-(3-butyl-1,2,3,6-tetrahydro-1-methyl-2,6-dioxo-9H-purin-8-yl)cinnamic acid] | > 100 | – | –
